# ChEMBL document CHEMBL1201862, “PubChem BioAssay data set” (2004)
#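 Results reflect a 48-hour exposure of cells in 96-well plates to compound at five concentrations. GI50: concentration for 50% inhibition of growth.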 Activity calls are given as the source filed them. No stated cut-off is given here; in the data, active = GI50 up to about 1.1 µM and inactive = higher.
# Columns and labels:
# Assay in all cases: inhibition of tumour cell growth, NCI panel, 48 h
# [1] = system: A498
# [2] = system: RXF 393
# [3] = system: UACC-62
# [4] = system: DU-145
# [5] = system: SNB-19
# [6] = system: RPMI-8226
# [7] = system: HCT-15
# [8] = system: K562
# [9] = system: Malme-3M
# [10] = system: MCF7
# [11] = system: NCI-H23
# [12] = system: MDA-MB-231
# [13] = system: IGROV-1
# [14] = system: LOX IMVI
# [15] = system: MDA-MB-435
# [16] = system: M14
# [17] = system: U-251
# [18] = system: SK-MEL-2
# [19] = system: NCI-H226
# [20] = system: NCI-H460
SMILES,GI50 [1],GI50 [2],GI50 [3],GI50 [4],GI50 [5],GI50 [6],GI50 [7],GI50 [8],GI50 [9],GI50 [10],GI50 [11],GI50 [12],GI50 [13],GI50 [14],GI50 [15],GI50 [16],GI50 [17],GI50 [18],GI50 [19],GI50 [20]
C=C(C)CN(CC#N)CC(=C)C,> 100 µM (inactive),> 100 µM (inactive),> 100 µM (inactive),> 100 µM (inactive),> 100 µM (inactive),> 100 µM (inactive),> 100 µM,> 100 µM (inactive),> 100 µM (inactive),> 100 µM (inactive),> 100 µM (inactive),> 100 µM (inactive),> 100 µM (inactive),> 100 µM (inactive),> 100 µM (inactive),> 100 µM (inactive),> 100 µM (inactive),> 100 µM (inactive),> 100 µM (inactive),
CC(C)(C)/C(=N\Nc1nc2ccccc2[nH]1)c1ccccn1,> 100 µM (inactive),> 100 µM (inactive),> 100 µM (inactive),95.9 µM (inactive),> 100 µM (inactive),12.9 µM (inactive),43.1 µM,99.8 µM (inactive),9.18 µM (inactive),24.9 µM (inactive),82.8 µM (inactive),> 100 µM (inactive),80.7 µM (inactive),> 100 µM (inactive),> 100 µM (inactive),61 µM (inactive),> 100 µM (inactive),> 100 µM (inactive),> 100 µM (inactive),> 100 µM (inactive)
CCCCCCCC/C=C\CCCCCCC(F)C(=O)O (stereo not drawn),> 12.5 µM (inactive),> 12.5 µM (inactive),,> 12.5 µM (inactive),> 12.5 µM (inactive),11.2 µM (inactive),> 12.5 µM,> 12.5 µM (inactive),> 12.5 µM (inactive),> 12.5 µM (inactive),> 12.5 µM (inactive),> 12.5 µM (inactive),> 12.5 µM (inactive),> 12.5 µM (inactive),> 12.5 µM (inactive),> 12.5 µM (inactive),> 12.5 µM (inactive),> 12.5 µM (inactive),> 12.5 µM (inactive),
CS(=O)(=O)CCC1CCC(=O)O1 (stereo not drawn),> 100 µM (inactive),49.2 µM (inactive),,96.8 µM (inactive),> 100 µM (inactive),> 100 µM (inactive),> 100 µM,> 100 µM (inactive),> 100 µM (inactive),58.9 µM (inactive),94.2 µM (inactive),> 100 µM (inactive),> 100 µM (inactive),20.6 µM (inactive),> 100 µM (inactive),> 100 µM (inactive),> 100 µM (inactive),,> 100 µM (inactive),69.5 µM (inactive)
C[C@]12CC[C@@H]3c4ccc(O)cc4CC[C@H]3[C@@H]1CC[C@@H]2OC(=O)CCc1ccccc1,17.4 µM (inactive),16.4 µM (inactive),13.9 µM (inactive),19.5 µM (inactive),18.5 µM (inactive),15.7 µM (inactive),14.4 µM,11 µM (inactive),17.6 µM (inactive),17.5 µM (inactive),17.7 µM (inactive),17.1 µM (inactive),20.8 µM (inactive),18.2 µM (inactive),13.1 µM (inactive),17.6 µM (inactive),18.7 µM (inactive),15.2 µM (inactive),19.1 µM (inactive),19.1 µM (inactive)
O=C(Nc1nc(C23CC4CC(CC(C4)C2)C3)cs1)c1c(O)c2ccccc2[nH]c1=O,> 100 µM (inactive),53.6 µM (inactive),,> 100 µM (inactive),> 100 µM (inactive),> 100 µM (inactive),> 100 µM,> 100 µM (inactive),> 100 µM (inactive),> 100 µM (inactive),> 100 µM (inactive),78.9 µM (inactive),> 100 µM (inactive),> 100 µM (inactive),> 100 µM (inactive),,> 100 µM (inactive),,> 100 µM (inactive),> 100 µM (inactive)
Cc1nnc2n1-c1ccccc1-c1[nH]c3ccccc3c1C2,19.2 µM (inactive),44.1 µM (inactive),25.1 µM (inactive),> 100 µM (inactive),> 100 µM (inactive),32.2 µM (inactive),,24.2 µM (inactive),78.9 µM (inactive),> 100 µM (inactive),63.7 µM (inactive),58.5 µM (inactive),70 µM (inactive),89.9 µM (inactive),60.1 µM (inactive),43.1 µM (inactive),,,> 100 µM (inactive),30.7 µM (inactive)
Nc1ncnc2ccc(Sc3ccc4ncnc(N)c4c3)cc12,> 100 µM (inactive),> 100 µM (inactive),> 100 µM (inactive),> 100 µM (inactive),> 100 µM (inactive),> 100 µM (inactive),> 100 µM,> 100 µM (inactive),> 100 µM (inactive),> 100 µM (inactive),,> 100 µM (inactive),> 100 µM (inactive),> 100 µM (inactive),> 100 µM (inactive),> 100 µM (inactive),> 100 µM (inactive),> 100 µM (inactive),> 100 µM (inactive),> 100 µM (inactive)
COC(=O)C1=COc2c(n(C)c3ccccc23)-c2ccccc21,> 100 µM (inactive),> 100 µM (inactive),> 100 µM (inactive),> 100 µM (inactive),> 100 µM (inactive),97.3 µM (inactive),> 100 µM,> 100 µM (inactive),> 100 µM (inactive),> 100 µM (inactive),> 100 µM (inactive),> 100 µM (inactive),20.2 µM (inactive),> 100 µM (inactive),> 100 µM (inactive),> 100 µM (inactive),> 100 µM (inactive),> 100 µM (inactive),> 100 µM (inactive),> 100 µM (inactive)
COC(=O)c1cccc(COc2ccc([N+](=O)[O-])cc2Cl)c1,36.5 µM (inactive),> 100 µM (inactive),43.4 µM (inactive),> 100 µM (inactive),> 100 µM (inactive),89.7 µM (inactive),70.5 µM,72.4 µM (inactive),> 100 µM (inactive),> 100 µM (inactive),> 100 µM (inactive),82.8 µM (inactive),> 100 µM (inactive),85.5 µM (inactive),> 100 µM (inactive),> 100 µM (inactive),83.2 µM (inactive),> 100 µM (inactive),43.2 µM (inactive),> 100 µM (inactive)
CC(C)CC1C(=O)NCCC(NC(=O)C(N)Cc2ccc(O)cc2)C(=O)NC(Cc2ccccc2)C(=O)NC(Cc2ccccc2)NC1=O (stereo not drawn),> 100 µM (inactive),> 100 µM (inactive),> 100 µM (inactive),> 100 µM (inactive),> 100 µM (inactive),78.2 µM (inactive),> 100 µM,> 100 µM (inactive),> 100 µM (inactive),> 100 µM (inactive),> 100 µM (inactive),> 100 µM (inactive),> 100 µM (inactive),> 100 µM (inactive),> 100 µM (inactive),> 100 µM (inactive),> 100 µM (inactive),> 100 µM (inactive),> 100 µM (inactive),> 100 µM (inactive)
CCC1c2[nH]c3ccccc3c2C[C@H]2C(=O)NC(Cc3ccccc3)C(=O)N12 (stereo partly drawn),38.5 µM (inactive),22.1 µM (inactive),17.2 µM (inactive),40 µM (inactive),34.9 µM (inactive),20.2 µM (inactive),35 µM,31.4 µM (inactive),19.7 µM (inactive),34.9 µM (inactive),37.1 µM (inactive),21 µM (inactive),28.8 µM (inactive),22.1 µM (inactive),20.2 µM (inactive),27.9 µM (inactive),22.8 µM (inactive),20.9 µM (inactive),28.4 µM (inactive),
OCc1ccccc1O[C@H]1O[C@H](CO)[C@@H](O)[C@H](O)[C@H]1O,> 100 µM (inactive),> 100 µM (inactive),> 100 µM (inactive),> 100 µM (inactive),,> 100 µM (inactive),> 100 µM,,> 100 µM (inactive),> 100 µM (inactive),> 100 µM (inactive),> 100 µM (inactive),> 100 µM (inactive),> 100 µM (inactive),> 100 µM (inactive),> 100 µM (inactive),> 100 µM (inactive),> 100 µM (inactive),> 100 µM (inactive),> 100 µM (inactive)
O=CC(NC(=O)N(CCCl)N=O)C(O)C(O)C(O)CO (stereo not drawn),1120 µM (inactive),1150 µM (inactive),47 µM (inactive),553 µM (inactive),312 µM (inactive),851 µM (inactive),1190 µM,575 µM (inactive),347 µM (inactive),948 µM (inactive),993 µM (inactive),> 1100 µM (inactive),1000 µM (inactive),,774 µM (inactive),748 µM (inactive),179 µM (inactive),718 µM (inactive),1240 µM (inactive),272 µM (inactive)
Cc1cc(C)c2c(O)cc(-c3cccc(Cl)c3)nc2n1,0.514 µM (active),0.179 µM (active),0.0681 µM (active),0.5 µM (active),0.349 µM (active),0.148 µM (active),0.101 µM,< 0.0199 µM (active),0.18 µM (active),0.208 µM (active),0.76 µM (active),0.256 µM (active),0.2 µM (active),0.273 µM (active),0.0115 µM (active),0.134 µM (active),0.206 µM (active),,0.391 µM (active),0.0968 µM (active)
